Results as given in ChEMBL document CHEMBL3046187, “Challenges in docking 2-hydroxy and 2,4-dihydroxychalcones into the binding site of ALR2” (Med Chem Res, 2013).

The compounds below were run against Aldo-keto reductase family 1 member B1 (Rattus norvegicus, UniProt P07943) (assay: Inhibition of Rattus norvegicus (rat) lens aldose reductase).
Work on `O=C(/C=C/c1ccc(O)cc1)c1ccccc1O` yielded an IC50 of 4250 nM. In the case of `O=C(/C=C/c1ccccc1O)c1ccc(O)cc1O`, the IC50 is reported as 380 nM. Compound `COc1ccc(/C=C/C(=O)c2ccc(O)cc2O)cc1` has an IC50 of 930 nM. `O=C(/C=C/c1ccc(Br)cc1)c1ccc(O)cc1O` showed an IC50 of 1120 nM. For `O=C(/C=C/c1ccc(O)cc1)c1cc(Cl)ccc1O`, the IC50 was 1010 nM. Compound `O=C(/C=C/c1ccccc1)c1cc(Cl)ccc1O` has an IC50 of 11500 nM. Work on `COc1ccc(/C=C/C(=O)c2cc(Cl)ccc2O)cc1` yielded an IC50 of 14800 nM. For `Cc1ccc(/C=C/C(=O)c2ccc(O)cc2O)cc1`, the IC50 was 810 nM. `O=C(/C=C/c1cc(O)ccc1O)c1ccc(O)cc1O` showed an IC50 of 580 nM. `O=C(/C=C/c1ccc(Cl)cc1)c1cc(Cl)ccc1O` gave an IC50 of 13700 nM. `CN(C)c1ccc(/C=C/C(=O)c2ccc(O)cc2O)cc1` was tested, and the IC50 was 1150 nM. With `O=C(/C=C/c1ccc(Cl)c(Cl)c1)c1ccc(O)cc1O` the IC50 was 1210 nM. With `COc1ccc(/C=C/C(=O)c2ccc(O)cc2O)cc1F` the IC50 was 910 nM. For `Cc1ccc(/C=C/C(=O)c2ccc(O)cc2O)c(C)c1`, the IC50 was 400 nM. `O=C(/C=C/c1ccc(O)c(O)c1O)c1ccc(O)cc1O` gave an IC50 of 750 nM. `O=C(/C=C/c1ccccc1O)c1cc(Cl)ccc1O` gave an IC50 of 1250 nM. Work on `O=C(/C=C/c1cccc(O)c1)c1cc(Cl)ccc1O` yielded an IC50 of 10500 nM. In the case of `Cc1cccc(/C=C/C(=O)c2cc(Cl)ccc2O)c1`, the IC50 is reported as 10200 nM. With `Cc1ccc(/C=C/C(=O)c2cc(Cl)ccc2O)cc1` the IC50 was 9800 nM. For `Cc1ccc(/C=C/C(=O)c2cc(Cl)ccc2O)c(C)c1`, the IC50 was 7800 nM. `O=C(/C=C/c1ccc(O)cc1O)c1cc(Cl)ccc1O` was tested, and the IC50 was 850 nM. In the case of `COc1ccc(/C=C/C(=O)c2cc(Cl)ccc2O)cc1F`, the IC50 is reported as 10900 nM. For `COc1ccc(/C=C/C(=O)c2cc(Cl)ccc2O)cc1OC`, the IC50 was 11800 nM. Work on `O=C(/C=C/c1ccc(O)c(O)c1)c1cc(Cl)ccc1O` yielded an IC50 of 550 nM. `COc1ccc(/C=C/C(=O)c2cc(Cl)ccc2O)c(OC)c1OC` gave an IC50 of 8200 nM. `O=C(/C=C/c1ccc(O)c(O)c1O)c1cc(Cl)ccc1O` showed an IC50 of 2230 nM. For `O=C(/C=C/c1ccc(O)cc1)c1cc(O)ccc1O`, the IC50 was 5390 nM. Work on `COc1ccc(O)c(C(=O)/C=C/c2ccc(O)cc2)c1` yielded an IC50 of 3180 nM. With `COc1cccc(O)c1C(=O)/C=C/c1ccc(O)cc1` the IC50 was 3270 nM. `Cc1ccc(O)c(C(=O)/C=C/c2ccc(O)cc2)c1` was tested, and the IC50 was 4380 nM. In the case of `O=C(/C=C/c1ccc(O)cc1)c1cc(Br)ccc1O`, the IC50 is reported as 2150 nM. For `O=C(/C=C/c1ccc([N+](=O)[O-])cc1)c1ccc(O)cc1O`, the IC50 was 3210 nM. `COc1ccc(C(=O)/C=C/c2ccc(O)cc2)c(O)c1` showed an IC50 of 5240 nM. `O=C(/C=C/c1ccc(O)cc1O)c1ccc(O)cc1O` gave an IC50 of 160 nM. In the case of `COc1ccc(/C=C/C(=O)c2ccc(O)cc2O)cc1OC`, the IC50 is reported as 1050 nM. `O=C(/C=C/c1ccccc1)c1ccc(O)cc1O` [2',4'-DIHYDROXYCHALCONE] showed an IC50 of 1010 nM. For `O=C(/C=C/c1ccc(O)c(O)c1)c1ccc(O)cc1O` [BUTEIN], the IC50 was 450 nM. In the case of `O=C(/C=C/c1ccc(O)cc1)c1ccc(O)cc1O` [ISOLIQUIRITIGENIN], the IC50 is reported as 400 nM.

These compounds were tested against Aldo-keto reductase family 1 member B1 (Homo sapiens, UniProt P15121) (assay: Inhibition of Homo sapiens (human) aldose reductase).
In the case of `CC1=C(CC(=O)O)c2cc(F)ccc2/C1=C\c1ccc([S+](C)[O-])cc1` (stereo not given) [SULINDAC], the IC50 is reported as 374 nM. `Cc1ccc(C(=O)c2ccc(CC(=O)O)n2C)cc1` [TOLMETIN] gave an IC50 of 2390 nM.
